Data from patent publication US20240358669A1, “METHODS FOR TREATING PANCREATIC CANCER” (Olatec Therapeutics, Inc., priority 2022, published 2024).

Tests used:
[1] = test system: KPC cells, a murine PDAC cell line; assay: Orthotopic KPC pancreatic cancer model in mice, dapansutrile and gemcitabine combination (Example 2); assay type: in vivo, C57BL/6 male mice; details: sacrifice after 21 days; gemcitabine 100 mg/kg i.p. every three days from day 10; dapansutrile diet; vs PBS vehicle (combination also vs monotherapies)
Method: Tumor-bearing mice were prepared according to Example 1 and monitored daily until the sacrifice after 21 days.
Mice treated with dapansutrile were fed with dapansutrile by the same protocol as described in Example 1.
Control mice received PBS
At sacrifice, tumor volume and tumor weight were assessed in the 4 groups of mice.

[2] = target: NLRP3 inflammasome (Homo sapiens, UniProt Q96P20); details: cited from earlier work
NLRP3 inflammasome, sequence (Q96P20 whole entry): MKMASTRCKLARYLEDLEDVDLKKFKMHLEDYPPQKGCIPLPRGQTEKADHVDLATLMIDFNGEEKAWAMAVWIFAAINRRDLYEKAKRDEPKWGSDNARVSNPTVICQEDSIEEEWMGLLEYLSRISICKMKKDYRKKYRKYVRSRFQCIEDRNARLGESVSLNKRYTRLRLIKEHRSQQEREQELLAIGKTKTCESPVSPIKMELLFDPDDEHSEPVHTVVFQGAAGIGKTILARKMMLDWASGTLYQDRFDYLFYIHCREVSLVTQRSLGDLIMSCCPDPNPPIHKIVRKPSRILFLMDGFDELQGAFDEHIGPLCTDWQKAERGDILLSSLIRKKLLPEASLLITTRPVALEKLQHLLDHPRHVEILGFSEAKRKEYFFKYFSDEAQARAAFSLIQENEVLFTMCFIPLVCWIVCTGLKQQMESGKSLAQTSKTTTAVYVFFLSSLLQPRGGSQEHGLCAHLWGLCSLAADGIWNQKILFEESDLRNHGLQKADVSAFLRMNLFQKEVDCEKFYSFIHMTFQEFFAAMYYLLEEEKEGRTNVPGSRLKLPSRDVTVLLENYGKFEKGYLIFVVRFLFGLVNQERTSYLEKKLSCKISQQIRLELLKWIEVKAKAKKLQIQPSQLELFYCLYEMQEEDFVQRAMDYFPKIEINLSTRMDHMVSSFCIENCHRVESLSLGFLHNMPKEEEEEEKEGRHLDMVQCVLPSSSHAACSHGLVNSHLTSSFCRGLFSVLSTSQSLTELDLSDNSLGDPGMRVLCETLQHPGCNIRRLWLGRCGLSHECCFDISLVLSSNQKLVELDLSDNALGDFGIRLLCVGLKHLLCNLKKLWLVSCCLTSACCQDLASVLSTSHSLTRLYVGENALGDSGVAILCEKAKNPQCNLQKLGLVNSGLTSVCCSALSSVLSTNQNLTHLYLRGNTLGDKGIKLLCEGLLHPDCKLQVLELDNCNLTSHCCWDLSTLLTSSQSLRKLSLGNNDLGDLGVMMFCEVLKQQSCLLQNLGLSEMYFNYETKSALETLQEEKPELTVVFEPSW

[3] = healthy subjects, oral; cited from earlier work
[4] = test system: non-immune cells; assay: Effect of dapansutrile on non-immune cell proliferation
[5] = test system: KPC cells, a murine PDAC cell line; assay: Orthotopic KPC pancreatic cancer model in mice, dapansutrile diet (Example 1); assay type: in vivo, C57BL/6 male mice; details: dapansutrile diet 7.5 g/kg food ad libitum from surgery, sacrifice after 21 days, vs standard diet
Method: C57BL/6 male mice (8 weeks old) were purchased from Jackson Laboratories (Bar Harbor, ME). Mice were anesthetized and following opening the abdominal cavity, the tip of pancreatic tail was gently grasped, and the pancreas/spleen was externalized in a lateral direction, exposing the entire pancreatic body and spleen. 100,000 KPC cells, a murine PDAC cell line, were mixed 1:1 with Matrigel (VF=20 μl) and injected into the tail of the pancreas. The pancreas was then gently internalized with blunt forceps and the abdominal muscle layer, and the skin was closed separately with absorbable sutures.
Following the initial injections of KPC cells, tumor bearing mice were monitored daily until the sacrifice after 21 days. At sacrifice, tumor volume and weight were assessed in the vehicle (n=16) and OLT1177® (dapansutrile)-treated mice (n=16).
From the date of surgery, mice were treated with oral dapansutrile via feed pellets ad libitum. The composition of the food is the standard mouse chow enriched with 7.5 gr of dapansutrile per kilogram of food. […]
At sacrifice, tumor volume in different groups was calculated using the modified ellipsoidal formula V=(LW^2)/2, where L is the length of the longest tumor dimension parallel to the skin containing the tumor midpoint, W is the length of the tumor dimension perpendicular to L and parallel to the skin, and V is tumor volume in cubic millimeters (mm^3).

[6] = test system: COX2/PGE2; assay: Effect of dapansutrile on COX2/PGE2; details: immunosuppressive pathway in PDAC

| SMILES | tumor volume [1] | tumor weight [1] | inhibition of the NLRP3 inflammasome [2] | safety when orally administered [3] | non-immune cells proliferation [4] | tumor volume ([5]; p<0.0001) | tumor weight ([5]; p<0.01) | COX2/PGE2 [6] |
| --- | --- | --- | --- | --- | --- | --- | --- | --- |
| CS(=O)(=O)CCC#N [dapansutrile, 3-methanesulfonyl-propionitrile] | significant reduction | significant reduction | selectively inhibit | safe | no effect | reduced tumor volume | reduced tumor weight | significant reduction |
| Nc1ccn([C@@H]2O[C@H](CO)[C@@H](O)C2(F)F)c(=O)n1 [gemcitabine, Gemcitabine, reference compound] |  | significant reduction |  |  |  |  |  |  |
